Measured values taken from patent US20250090540A1, “PI3K-ALPHA INHIBITORS AND METHODS OF USE THEREOF” (Relay Therapeutics, Inc., priority 2021, published 2025).
Read-outs that look alike come from different tables or passages of the source.

Assays:
[1] = cells; settings: Homo sapiens, MCF-10A, read-out: MCF10A I50
[2] = molecular target: H1047R PIK3CA enzyme (Homo sapiens, UniProt P42336, H1047R); assay: ADP-Glo Biochemical PIK3CA Kinase Assay
[3] = ADP-Glo biochemical PIK3CA kinase assay

Chain of H1047R PIK3CA enzyme (P42336 whole entry H1047R): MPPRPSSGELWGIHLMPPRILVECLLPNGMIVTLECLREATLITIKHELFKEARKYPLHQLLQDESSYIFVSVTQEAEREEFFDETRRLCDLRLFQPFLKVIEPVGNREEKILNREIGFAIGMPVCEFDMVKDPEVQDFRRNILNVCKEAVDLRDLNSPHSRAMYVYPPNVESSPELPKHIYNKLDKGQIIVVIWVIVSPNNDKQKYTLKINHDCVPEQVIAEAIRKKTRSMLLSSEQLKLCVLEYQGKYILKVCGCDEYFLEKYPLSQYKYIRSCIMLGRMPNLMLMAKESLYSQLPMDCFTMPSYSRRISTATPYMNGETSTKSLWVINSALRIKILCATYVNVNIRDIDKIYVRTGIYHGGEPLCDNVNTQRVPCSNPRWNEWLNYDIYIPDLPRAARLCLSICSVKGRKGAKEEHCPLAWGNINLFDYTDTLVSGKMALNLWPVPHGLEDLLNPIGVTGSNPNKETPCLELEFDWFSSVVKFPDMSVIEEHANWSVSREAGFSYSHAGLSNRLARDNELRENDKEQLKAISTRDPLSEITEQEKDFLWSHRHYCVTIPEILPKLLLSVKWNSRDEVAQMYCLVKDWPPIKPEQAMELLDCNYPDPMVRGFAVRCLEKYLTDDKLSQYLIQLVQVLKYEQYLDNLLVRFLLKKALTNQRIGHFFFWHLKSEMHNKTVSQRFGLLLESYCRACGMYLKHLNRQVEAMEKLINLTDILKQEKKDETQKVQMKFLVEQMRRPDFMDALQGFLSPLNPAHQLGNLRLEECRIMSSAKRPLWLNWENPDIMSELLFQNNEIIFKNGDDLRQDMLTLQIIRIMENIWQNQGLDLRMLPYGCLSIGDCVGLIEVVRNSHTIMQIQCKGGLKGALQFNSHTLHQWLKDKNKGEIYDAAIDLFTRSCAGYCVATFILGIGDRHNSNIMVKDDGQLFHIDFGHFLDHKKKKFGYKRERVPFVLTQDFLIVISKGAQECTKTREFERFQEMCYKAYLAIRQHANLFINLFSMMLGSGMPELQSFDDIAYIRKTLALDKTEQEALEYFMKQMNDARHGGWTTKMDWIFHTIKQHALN
Chain of H1047R PIK3CA enzyme (P27986 whole entry partner): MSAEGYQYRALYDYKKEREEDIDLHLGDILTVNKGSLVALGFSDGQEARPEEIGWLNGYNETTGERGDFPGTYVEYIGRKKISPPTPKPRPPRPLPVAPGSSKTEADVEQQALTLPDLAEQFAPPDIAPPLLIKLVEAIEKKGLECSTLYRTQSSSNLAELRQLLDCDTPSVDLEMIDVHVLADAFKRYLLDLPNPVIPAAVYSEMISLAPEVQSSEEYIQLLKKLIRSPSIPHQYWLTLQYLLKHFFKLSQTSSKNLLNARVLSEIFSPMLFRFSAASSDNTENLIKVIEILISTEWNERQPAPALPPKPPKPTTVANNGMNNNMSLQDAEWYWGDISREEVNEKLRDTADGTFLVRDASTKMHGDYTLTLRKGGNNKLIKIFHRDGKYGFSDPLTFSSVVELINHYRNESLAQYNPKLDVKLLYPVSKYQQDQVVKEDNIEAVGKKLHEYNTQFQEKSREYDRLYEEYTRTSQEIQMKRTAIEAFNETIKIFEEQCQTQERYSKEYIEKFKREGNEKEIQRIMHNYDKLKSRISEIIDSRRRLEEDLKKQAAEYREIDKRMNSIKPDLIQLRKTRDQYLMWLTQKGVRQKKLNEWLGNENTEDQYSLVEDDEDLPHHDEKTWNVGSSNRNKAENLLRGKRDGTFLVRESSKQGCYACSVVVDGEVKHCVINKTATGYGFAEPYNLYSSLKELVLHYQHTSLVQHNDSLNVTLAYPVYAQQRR

| SMILES | IC50 [1] [µM] | IC50 [2] [µM] | IC50 [2, 3] [µM] |
| --- | --- | --- | --- |
| CNC(=O)c1cnc(Nc2ccccc2C)c(NC(=O)c2cc(F)cc(C#N)c2)c1 [I-313] | 10 to 36 | 1 to 10 | – |
| O=C(NCCN1CCOCC1)c1cnc(N2CCOc3ccccc32)c(NC(=O)c2csc3ccccc23)c1 [I-316] | 36 to 100 | 1 to 10 | – |
| C[C@]1(O)C[C@@H](NC(=O)c2cnc(N3CCOc4ccccc43)c(NC(=O)c3csc4ccccc34)c2)C1 [I-317] | 5 to 10 | 0.1 to 0.5 | – |
| CC(=O)N1CC(NC(=O)c2cnc(N3CCOc4ccccc43)c(NC(=O)c3cc(F)cc(C(F)(F)F)c3)c2)C1 [I-329] | 10 to 36 | 0.5 to 1 | – |
| Cc1ccccc1Nc1ncc(C(=O)NC2CS(=O)(=O)C2)cc1NC(=O)c1nsc2ccccc12 [I-330] | 1 to 5 | 0.1 to 0.5 | – |
| Cc1ccccc1Nc1ncc(C(=O)NC2C[S+]([O-])C2)cc1NC(=O)c1nsc2ccccc12 (stereo not shown) [I-331] | 1 to 5 | 0.1 to 0.5 | – |
| Cc1ccccc1Nc1ncc(C(=O)NC2CC(F)(F)C2)cc1NC(=O)c1nsc2ccccc12 [I-332] | 5 to 10 | 0.1 to 0.5 | – |
| CNC(=O)c1cnc(Nc2ncccc2C)c(NC(=O)c2csc3ccccc23)c1 [I-335] | 10 to 36 | 0.5 to 1 | – |
| CNC(=O)c1cnc(Nc2ccccc2C)c(NC(=O)c2csc3cnccc23)c1 [I-339] | 1 to 5 | 0.5 to 1 | – |
| Cc1ccccc1Nc1cnc(C(=O)NC2CS(=O)(=O)C2)cc1NC(=O)c1cc(F)cc(C(F)(F)F)c1 [I-343] | < 1 | 1 to 10 | – |
| O=C(NC1CC(F)(F)C1)c1cnc(N2CCOc3ccccc32)c(NC(=O)c2csc3ccccc23)c1 [I-347] | 1 to 5 | 0.1 to 0.5 | – |
| Cc1ccccc1Nc1cc2nnc(N)n2cc1NC(=O)c1csc2ccccc12 [I-350] | 1 to 5 | 1 to 10 | – |
| Cc1ccccc1Nc1ncc(C(=O)NC2(C)CS(=O)(=O)C2)cc1NC(=O)c1csc2ccccc12 [I-361] | 1 to 5 | 0.1 to 0.5 | – |
| CNC(=O)c1cnc(Nc2ccccc2Cl)c(NC(=O)c2csc3ccccc23)c1 [I-362] | 10 to 36 | ≤ 0.1 | – |
| Cc1cc(Cn2cc(NC(=O)c3csc4ccccc34)c(Nc3ccccc3C)cc2=O)no1 [I-390] | 10 to 36 | 0.1 to 0.5 | – |
| Cc1ccccc1Nc1ncc(C(=O)N[C@H]2C[C@@H](O)C2)cc1NC(=O)c1cc(F)cc(C(F)(F)F)c1 [I-395] | 1 to 5 | 0.1 to 0.5 | – |
| O=C(Nc1cc(C(=O)N[C@H]2C[C@H](O)C2)cnc1Nc1ccccc1)c1cc(F)cc(C(F)(F)F)c1 [I-396] | 1 to 5 | 0.1 to 0.5 | – |
| Cc1ccccc1Nc1ncc(C(=O)N[C@H]2C[C@@H](O)C2)cc1NC(=O)c1csc2ccccc12 [I-397] | 5 to 10 | ≤ 0.1 | – |
| Cc1ccccc1Nc1ncc(C(=O)NC2CC(=O)N(Cc3ccccc3)C2)cc1NC(=O)c1csc2ccccc12 (stereo not shown) [I-398] | 10 to 36 | – | 0.1 to 0.5 |
| Cc1ccccc1Nc1ncc(C(=O)N[C@H]2C[C@H](O)C2)cc1NC(=O)c1csc2ccccc12 [I-399] | 1 to 5 | – | ≤ 0.1 |
| CNC(=O)c1cnc(Nc2ccccc2C)c(NC(=O)c2csc3c2CCOC3)c1 [I-402] | 10 to 36 | – | 1 to 10 |
| CNC(=O)c1cnc(Nc2ncccc2OC)c(NC(=O)c2csc3ccccc23)c1 [I-405] | 36 to 100 | – | 10 to 100 |
| CNC(=O)c1cnc(Nc2ccccc2C)c(NC(=O)c2coc3c(F)cc(F)cc23)c1 [I-406] | 1 to 5 | – | 0.5 to 1 |

| SMILES | IC50 [1] [µM] | IC50 [2] [µM] | IC50 [2, 3] [µM] |
| --- | --- | --- | --- |
| CNC(=O)c1cnc(Nc2ccccc2OC)c(NC(=O)c2csc3ccccc23)c1 [I-407] | 36 to 100 | – | 1 to 10 |
| CNC(=O)c1cnc(Nc2ccccc2C)c(NC(=O)c2coc3ccc(Cl)cc23)c1 [I-408] | 1 to 5 | – | 0.5 to 1 |
| CNC(=O)c1cnc(Nc2ccccc2C)c(NC(=O)c2csc3ccc(OC)cc23)c1 [I-409] | 10 to 36 | – | 1 to 10 |
| Cc1ccccc1Nc1ncc(CNC2CS(=O)(=O)C2)cc1NC(=O)c1cc(F)cc(C(F)(F)F)c1 [I-411] | 10 to 36 | – | 1 to 10 |
| CNC(=S)c1cnc(Nc2ccccc2C)c(NC(=O)c2csc3ccccc23)c1 [I-412] | 10 to 36 | – | 0.1 to 0.5 |
| Cc1ccccc1Nc1ncncc1NC(=O)c1csc2ccccc12 [I-413] | 10 to 36 | – | 1 to 10 |
| CNC(=O)c1cnc(Nc2ccccc2C)c(NC(=O)c2cc3c(Cl)ccnc3[nH]2)c1 [I-424] | 36 to 100 | – | 10 to 100 |
| Cc1ccccc1Nc1ncc(C(=O)NC2CC(=O)N(C)C2)cc1NC(=O)c1csc2ccccc12 (stereo not shown) [I-434] | 5 to 10 | – | 0.1 to 0.5 |
| Cc1ccccc1Nc1ncc(N2CC(S(C)(=O)=O)C2)cc1NC(=O)c1csc2ccccc12 [I-436] | 10 to 36 | – | 0.5 to 1 |
| CNC(=O)c1cnc(Nc2ccccc2C)c(NC(=O)c2cnn3cccc(Br)c23)c1 [I-468] | 10 to 36 | – | 1 to 10 |
| CNC(=O)c1cnc(Nc2ccccc2C)c(NC(=O)c2cc3c(Br)cccn3c2)c1 [I-486] | 10 to 36 | – | 0.1 to 0.5 |
| Cc1ccccc1Nc1ncc(C(=O)Nc2cccnn2)cc1NC(=O)c1csc2ccccc12 [I-496] | 10 to 36 | – | 0.5 to 1 |
| CNC(=O)c1cnc(Nc2ccccc2C)c(NC(=O)C2(c3ccccc3Cl)CC2)c1 [I-499] | 10 to 36 | – | ≤ 0.1 |
| Cc1ccccc1Nc1ncc(C(=O)N[C@@H]2c3ccccc3C[C@@H]2O)cc1NC(=O)c1csc2ccccc12 [I-506] | 5 to 10 | – | 0.1 to 0.5 |
| Cc1ccccc1Nc1ncc(C(=O)Nc2cn(C)cn2)cc1NC(=O)c1csc2ccccc12 [I-508] | 10 to 36 | – | 0.1 to 0.5 |
| CNC(=O)c1cnc(Nc2ccccc2C)c(NC(=O)c2cc(Br)cc3c2cnn3C)c1 [I-510] | 10 to 36 | – | 0.1 to 0.5 |
| COc1cnccc1CCNC(=O)c1cnc(Nc2ccccc2C)c(NC(=O)c2csc3ccccc23)c1 [I-515] | 10 to 36 | – | 0.1 to 0.5 |
| Cc1ccccc1Nc1ncc(C(=O)NCC(F)F)cc1NC(=O)c1csc2ccccc12 [I-519] | 5 to 10 | – | ≤ 0.1 |
| CNC(=O)c1cnc(Nc2ccccc2C)c(NC(=O)c2n[nH]c3ccc(Br)cc23)c1 [I-520] | 10 to 36 | – | ≤ 0.1 |
| Cc1ccccc1Nc1ncc(C(=O)NCc2cnccc2C(F)(F)F)cc1NC(=O)c1csc2ccccc12 [I-525] | 10 to 36 | – | ≤ 0.1 |
| COC[C@@H](C)NC(=O)c1cnc(Nc2ccccc2C)c(NC(=O)c2csc3ccccc23)c1 [I-526] | 10 to 36 | – | 1 to 10 |
| CNC(=O)c1cnc(Nc2ccccc2C)c(NC(=O)c2cc(C#N)cc(C(F)(F)F)c2)c1 [I-527] | 5 to 10 | – | 0.1 to 0.5 |
| CNC(=O)c1cnc(Nc2ccccc2C)c(NC(=O)c2cccc3[nH]c(C(F)(F)F)nc23)c1 [I-530] | 10 to 36 | – | 0.1 to 0.5 |

| SMILES | IC50 [1] [µM] | IC50 [2] [µM] | IC50 [2, 3] [µM] |
| --- | --- | --- | --- |
| Cc1ccccc1Nc1ncc(C(=O)NCc2cnn(C(C)C)c2)cc1NC(=O)c1csc2ccccc12 [I-532] | 10 to 36 | – | 0.1 to 0.5 |
| Cc1ccccc1Nc1ncc(C(=O)N2CC(C#N)C2)cc1NC(=O)c1csc2ccccc12 [I-533] | 10 to 36 | – | 1 to 10 |
| Cc1ccccc1Nc1ncc(C(=O)NCc2ccc3c(c2)OCCO3)cc1NC(=O)c1csc2ccccc12 [I-534] | 10 to 36 | – | ≤ 0.1 |
| CNC(=O)c1cnc(Nc2ccccc2C)c(NC(=O)c2cnc(OC)c(C(F)(F)F)c2)c1 [I-535] | 10 to 36 | – | 1 to 10 |
| COc1ccnc(CNC(=O)c2cnc(Nc3ccccc3C)c(NC(=O)c3csc4ccccc34)c2)c1 [I-538] | 10 to 36 | – | 0.1 to 0.5 |
| Cc1ccccc1Nc1ncc(C(=O)Nc2ccc3cccnc3c2)cc1NC(=O)c1csc2ccccc12 [I-539] | 36 to 100 | – | 0.5 to 1 |
| Cc1ccccc1Nc1ncc(C(=O)NCc2nc(C3CC3)no2)cc1NC(=O)c1csc2ccccc12 [I-540] | 1 to 5 | – | ≤ 0.1 |
| Cc1ccccc1Nc1ncc(C(=O)NC2CCC(F)(F)C2)cc1NC(=O)c1csc2ccccc12 (stereo not shown) [I-544] | 10 to 36 | – | 0.1 to 0.5 |
| Cc1ccccc1Nc1ncc(C(=O)N[C@H]2CCCOC2)cc1NC(=O)c1csc2ccccc12 [I-545] | 1 to 5 | – | 0.1 to 0.5 |
| Cc1ccccc1Nc1ncc(C(=O)N[C@H]2CC[C@@H](F)C2)cc1NC(=O)c1csc2ccccc12 [I-546] | 5 to 10 | – | ≤ 0.1 |
| Cc1ccccc1Nc1ncc(C(=O)N[C@@H]2CC[C@@H](F)C2)cc1NC(=O)c1csc2ccccc12 [I-547] | 5 to 10 | – | 0.1 to 0.5 |
| Cc1ccccc1Nc1ncc(C(=O)NCc2ccon2)cc1NC(=O)c1csc2ccccc12 [I-560] | 1 to 5 | – | ≤ 0.1 |
| Cc1ccccc1Nc1ncc(C(=O)NCc2cnc3c(C)cccn23)cc1NC(=O)c1csc2ccccc12 [I-561] | 10 to 36 | – | 0.1 to 0.5 |
| Cc1ccccc1Nc1ncc(C(=O)NCC2CCN(C)C(=O)C2)cc1NC(=O)c1csc2ccccc12 (stereo not shown) [I-563] | 10 to 36 | – | 0.1 to 0.5 |
| CNC(=O)c1cnc(Nc2ccccc2C)c(NC(=O)c2ccc3nnc(Br)n3c2)c1 [I-564] | 10 to 36 | – | 0.5 to 1 |
| Cc1ccccc1Nc1ncc(C(=O)NC2NC(=O)c3ccccc32)cc1NC(=O)c1csc2ccccc12 (stereo not shown) [I-568] | 1 to 5 | – | ≤ 0.1 |
| Cc1ccccc1Nc1ncc(C(=O)NCC2CCNC(=O)C2)cc1NC(=O)c1csc2ccccc12 (stereo not shown) [I-569] | 10 to 36 | – | 0.1 to 0.5 |
| Cc1ccccc1Nc1ncc(C(=O)NCCn2ccnn2)cc1NC(=O)c1csc2ccccc12 [I-570] | 10 to 36 | – | 0.1 to 0.5 |
| Cc1ccccc1Nc1ncc(C(=O)N[C@H]2CCC(F)(F)C[C@@H]2O)cc1NC(=O)c1csc2ccccc12 [I-571] | 1 to 5 | – | 0.1 to 0.5 |
| Cc1ccccc1Nc1ncc(C(=O)NCc2ccncn2)cc1NC(=O)c1csc2ccccc12 [I-572] | < 1 | – | 0.1 to 0.5 |
| Cc1ccccc1Nc1ncc(C(=O)Nc2ncn(C)n2)cc1NC(=O)c1csc2ccccc12 [I-573] | 10 to 36 | – | 0.5 to 1 |
| Cc1ccccc1Nc1ncc(C(=O)NCCn2nccn2)cc1NC(=O)c1csc2ccccc12 [I-578] | 10 to 36 | – | 0.1 to 0.5 |
